{"source": "paper PMC6650409", "about": "“Modeling the binding of diverse ligands within the Ah receptor ligand binding domain” (Scientific Reports, 2019)", "origin": "cited, not measured here", "key": {"[1]": {"tested_on": "zebrafish AhR1a (zfAhR1a)", "details": "cited from earlier work"}, "[2]": {"target": "T1, mAhR (Mus musculus, UniProt P30561)", "T1 construct": "made in house; host or cells: in vitro, Promega TNT Quick coupled transcription/translation rabbit reticulocyte lysate", "T1 sequence (P30561 10-848)": "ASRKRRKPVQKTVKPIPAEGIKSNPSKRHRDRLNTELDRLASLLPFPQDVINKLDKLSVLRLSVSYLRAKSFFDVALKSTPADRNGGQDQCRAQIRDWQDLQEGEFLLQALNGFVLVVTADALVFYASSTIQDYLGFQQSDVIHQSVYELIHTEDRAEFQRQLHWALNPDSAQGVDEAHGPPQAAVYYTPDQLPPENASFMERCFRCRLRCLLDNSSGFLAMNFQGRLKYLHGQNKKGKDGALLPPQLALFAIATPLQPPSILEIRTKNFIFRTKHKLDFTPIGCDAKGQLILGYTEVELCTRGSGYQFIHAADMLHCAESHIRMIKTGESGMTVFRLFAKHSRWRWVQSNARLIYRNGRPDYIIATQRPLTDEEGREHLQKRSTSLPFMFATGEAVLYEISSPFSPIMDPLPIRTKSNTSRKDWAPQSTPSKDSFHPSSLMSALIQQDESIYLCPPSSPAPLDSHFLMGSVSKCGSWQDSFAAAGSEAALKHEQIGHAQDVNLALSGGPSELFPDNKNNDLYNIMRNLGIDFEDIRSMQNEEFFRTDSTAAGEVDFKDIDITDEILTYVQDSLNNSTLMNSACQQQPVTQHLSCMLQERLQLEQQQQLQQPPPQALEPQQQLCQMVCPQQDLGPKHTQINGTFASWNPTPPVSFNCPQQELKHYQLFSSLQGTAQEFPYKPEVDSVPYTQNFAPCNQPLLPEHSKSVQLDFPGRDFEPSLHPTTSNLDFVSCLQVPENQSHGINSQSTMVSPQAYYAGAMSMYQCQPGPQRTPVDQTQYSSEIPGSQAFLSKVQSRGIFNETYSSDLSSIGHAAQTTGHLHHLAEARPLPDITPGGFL", "set-up": "method as in PMID 21981577", "details": "in words; cited from earlier work"}, "[3]": {"tested_on": "AhR", "set-up": "method as in PMID 21981577", "details": "in words; cited from earlier work"}}, "data": [{"molecule": "Cc1oncc1C(=O)Nc1ccc(C(F)(F)F)cc1", "note": "[LEFL, Leflunomide]", "values": [{"measurement": "ligand binding to zfAhR1a", "setting": "[1]", "result": "could still bind and be activated"}]}, {"molecule": "O=[N+]([O-])c1cc(C(F)(F)F)ccc1NCc1ccsc1", "note": "[THS-017]", "values": [{"measurement": "displacement of [3H]TCDD specific binding to the mAhR", "setting": "[2]", "result": "could competitively displace"}, {"measurement": "AhR agonist activity", "setting": "[3]", "result": "acted as AhR agonists"}]}, {"molecule": "O=[N+]([O-])c1cc(C(F)(F)F)ccc1NCc1ccco1", "note": "[THS-020]", "values": [{"measurement": "displacement of [3H]TCDD specific binding to the mAhR", "setting": "[2]", "result": "could competitively displace"}, {"measurement": "AhR agonist activity", "setting": "[3]", "result": "acted as AhR agonists"}]}]}
